Read-outs that look alike come from different tables or passages of the source.
Columns and labels:
exploratory activity = assay: Inhibitory effect on exploratory activity (Animex activity meter); type: in vivo, mice (Std-ddy strain); conditions: oral, 2 h after administration, 3 min counting; dose not given
Protocol: A group of 5 male mice (Std-ddy strain, 20-25 g) was used. Two hours after oral administration of the test compound, mice were placed individually in a test box (23×35×30 cm) on Animex activity meter (Farad Co.). Immediately thereafter, activity counting was started and lasted for three minutes. The mean counts of the compound-treated group were compared with those of the corresponding control (non-dosed) group, and the percent inhibition was calculated.

[1] = tested on: apomorphine-induced vomiting; assay: Antagonistic effect on apomorphine-induced vomiting; type: in vivo, dogs (Beagle); conditions: Canis lupus familiaris, sc, read-out: Inhibitory ratio (apomorphine-induced vomiting)
Protocol: A group of 3-4 dogs (Beagle, 8-15 kg) was used for examining effects on the test compounds on apomorphine-induced vomiting, a known test for evaluating neuroleptic drugs.
Each dog was given a subcutaneous injection of apomorphine hydrochloride (0.3 mg/kg) two hours after the treatment of the test compounds. Then, the frequency of oral vomiting was counted for one hour. The mean counts of the compound-treated group were compared with those of the corresponding control (non-dosed) group, and the percent inhibition was calculated.

dopamine (D2) receptor = molecular target: T1, dopamine (D2) receptor (Rattus norvegicus, UniProt P61169); assay: In vitro binding to dopamine (D2) receptor, [3H] spiperone; set-up: species or system rats
T1 construct: Crude synaptosome fractions were prepared from some brain regions in rats for receptor sources; from tissue
Protocol: (§1) Dopamine (D2), serotonin (S1, S2) and adrenaline (α1) receptor binding assays were carried out according to the methods of I. Creese et al. [Eur. J. Pharmacol., 46, 377 (1977), S. J. Peroutka et al. [Mol. Pharmacol. 16, 687 (1979)], J. E. Leysen et al. [Mol. Pharmacol., 21, 301 (1982)] and D. C. U'Prichard et al. [Mol. Pharmacol., 13, 454 (1977)], respectively.
(§2) Crude synaptosome fractions were prepared from some brain regions in rats for receptor sources. Radioactive ligands used were [^3 H] spiperone (D2), [^3 H] serotonin (S1), [^3 H] ketanserin (S2) and [^3 H] WB-4101 (α1). The binding assay was performed by incubating aliquots of synaptosome fraction in buffer solution (final volume: 1 ml) containing a [^3 H] labelled ligand and a test compound. The assay was terminated by rapid filtration through Whatman GF/B glass fiber filters attached to a cell-harvester (Brandel) and radioactivity on the filters was counted in a Packard Triscarb scintillation counter. Specific binding was calculated as a difference between amounts of radioactivity in the presence and absence of an unlabelled ligand [spiperone (D2), serotonin (S1), methysergide (S2) and prazosin (α1)]. The IC50 value of the test compounds (concentration causing 50% inhibition of [^3 H] ligand specific binding) was determined by probit analysis.

serotonin (S2) receptor = molecular target: T2, serotonin (S2) receptor (Rattus norvegicus, UniProt P14842); assay: In vitro binding to serotonin (S2) receptor, [3H] ketanserin; set-up: species or system rats; conditions: [3H] ketanserin, rat brain crude synaptosome fraction
T2 construct: Crude synaptosome fractions were prepared from some brain regions in rats for receptor sources; from tissue
Protocol: as §1, §2

adrenaline (α1) receptor = assay: In vitro binding to adrenaline (α1) receptor, [3H] WB-4101; set-up: species or system rats; conditions: [3H] WB-4101, rat brain crude synaptosome fraction
Protocol: as §1, §2

[2] = tested on: brain monoamine metabolites; assay: Increasing effect on concentration of brain monoamine metabolites; type: in vivo, mice (Std-ddy strain); conditions: Mus musculus, 2 h, non-dosed=100
Protocol: A group of 5 male mice (Std-ddy strain, 25-30 g) was used for examining effect of the test compounds on concentration of brain monoamine metabolites.
Mice were killed by decapitation 2 hours after treatment with the test compounds. Brains were quickly taken out, homogenized in 1N formic acid-acetone solution, and centrifuged in a refrigerated ultracentrifuge. The supernatant was evaporated by blowing with N2 gas. Then, the residue was again resolved in 0.01 N acetic acid, and served for determining concentration of dopamine metabolites, 3,4-dihydroxyphenylacetic acid (DOPAC) and homovanillic acid (HVA), a norepinephrine metabolite, 3-methyl-4-hydroxyphenylethylene glycol (MOPEG), and a serotonin metabolite, 5-hydroxyindole-3-acetic acid (5-HIAA) concentrations by HPLC with electrochemical detection. The effect of the test compounds on concentration of each monoamine metabolite is shown as % of control (level of non-dosed animals=100) in Table 4.

serotonin (S1) receptor = assay: In vitro binding to serotonin (S1) receptor, [3H] serotonin; set-up: species or system rats; conditions: rat brain crude synaptosome fraction
Protocol: as §1, §2

[3] = tested on: scopolamine-induced deficit of spontaneous alternation; assay: Improving effect on scopolamine-induced deficit of spontaneous alternation behavior (T-maze); type: in vivo, mice (Std-ddY strain); conditions: scopolamine hydrobromide 1 mg/kg i.p.
From the text: A group of 15-25 male mice (Std-ddY strain, 22-28 g) was used for evaluating effect of the test compounds on scopolamine-induced deficit of spontaneous alternation in a T-maze, which is a known animal model of memory impairment due to hypofunction of the cholinergic nervous system. The T-maze used consists of a stem and two arms which are 25 cm long, 5 cm wide and 10 cm high. The first 10 cm of the stem and last 10 cm of each arm are divided by sliding doors into start and goal boxes.
A test compound and scopolamine hydrobromide (1 mg/kg) were intraperitoneally administered to each mouse, and after 30 minutes a test of spontaneous alternation task in the T-maze was continuously repeated for 8 trials. Commonly, naive mice alternate each (right and left) goal box in turn, but scopolamine-treated animals tend to enter the same goal box repeatedly. The effect of the test compounds was expressed as % improvement (complete improvement to the alternation level of non-dosed mice=100%).

[4] = tested on: cycloheximide-induced amnesia of passive avoidance response; assay: Improving effect on cycloheximide-induced amnesia of passive avoidance response; type: in vivo, mice (Std-ddY strain); conditions: cycloheximide 60 mg/kg s.c., retention at 24 h
From the text: Anti-amnesic effect of the test compounds was examined using mice given cycloheximide, which is a known amnesia-inducing agent.
A group of 15-20 male mice (Std-ddY strain, 27-33 g) was subjected to training and retention trials for a passive avoidance task in a step-down apparatus (30×30×50 cm) with a grid floor and a wooden platform (4×4×4 cm) in a center of the floor. In the training trial, each mouse was first placed on the platform. When the mouse stepped down on the grid floor, an electric shock (1 Hz, 0.5 sec, 60 VDC) was delivered to the feet for 15 seconds. Immediately after the training trial, cycloheximide (60 mg/kg, s.c.) and a test compound (i.p.) were administered. The retention trial was carried out 24 hours thereafter, the time from placing again each mouse placed on the platform until stepping down on the grid floor (step-down latency) was measured. The step-down latency in the retention trial was markedly shortened by treatment of cycloheximide (amnesia). The effect of test compounds was assessed by % improvement (complete improvement to the latency level of non-dosed animals=100%).

[5] = [3H] spiperone, rat brain crude synaptosome fraction, read-out: IC50 D2
[6] = read-out: 5-HIAA concentration, % of control
[7] = read-out: DOPAC concentration, % of control
[8] = read-out: HVA concentration, % of control
[9] = read-out: MOPEG concentration, % of control

T1 sequence (P61169 whole entry): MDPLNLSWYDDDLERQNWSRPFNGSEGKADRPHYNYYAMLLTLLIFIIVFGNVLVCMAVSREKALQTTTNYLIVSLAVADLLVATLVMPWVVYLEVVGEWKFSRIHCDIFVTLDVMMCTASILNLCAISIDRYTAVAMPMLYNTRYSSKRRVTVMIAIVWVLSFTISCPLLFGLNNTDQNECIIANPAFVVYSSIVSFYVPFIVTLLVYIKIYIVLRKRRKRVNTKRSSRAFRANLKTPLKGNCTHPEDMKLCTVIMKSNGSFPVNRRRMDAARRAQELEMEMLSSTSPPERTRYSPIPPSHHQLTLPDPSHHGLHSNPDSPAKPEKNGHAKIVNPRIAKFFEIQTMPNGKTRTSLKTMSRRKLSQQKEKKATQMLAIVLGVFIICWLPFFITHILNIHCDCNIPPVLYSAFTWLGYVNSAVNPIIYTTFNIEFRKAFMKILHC
T2 sequence (P14842 whole entry): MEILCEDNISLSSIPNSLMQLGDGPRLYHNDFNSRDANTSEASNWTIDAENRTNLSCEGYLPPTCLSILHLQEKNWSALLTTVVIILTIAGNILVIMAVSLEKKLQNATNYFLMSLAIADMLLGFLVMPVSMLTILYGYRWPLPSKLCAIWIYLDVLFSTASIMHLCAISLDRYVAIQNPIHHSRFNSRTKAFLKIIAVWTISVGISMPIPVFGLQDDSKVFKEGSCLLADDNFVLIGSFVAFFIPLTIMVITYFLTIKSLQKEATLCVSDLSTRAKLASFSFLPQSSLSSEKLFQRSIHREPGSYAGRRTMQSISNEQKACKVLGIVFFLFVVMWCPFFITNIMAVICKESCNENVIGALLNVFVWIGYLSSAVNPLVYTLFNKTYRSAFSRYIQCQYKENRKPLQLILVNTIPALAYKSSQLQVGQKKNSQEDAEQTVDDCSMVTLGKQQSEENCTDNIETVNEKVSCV

| SMILES | IC50 (dopamine (D2) receptor; [5]) | IC50 (serotonin (S2) receptor) | IC50 (adrenaline (α1) receptor) | IC50 (serotonin (S1) receptor) | response vs control in vivo at 10 mg/kg [2, 6] | response vs control in vivo at 10 mg/kg [2, 7] | response vs control in vivo at 10 mg/kg [2, 8] | response vs control in vivo at 10 mg/kg [2, 9] | Improvement (spontaneous alternation) ([3]; dose 10.0 mg/kg i.p.) | Improvement (step-down latency) ([4]; dose 0.5 mg/kg i.p.) | Improvement (step-down latency) ([4]; dose 2.0 mg/kg i.p.) | further results |
| --- | --- | --- | --- | --- | --- | --- | --- | --- | --- | --- | --- | --- |
| CCN1CCN(c2cc(-c3ccc(F)cc3)c3c(n2)CCCCCC3)CC1 [Example 1b, 2-(4-ethyl-1-piperazinyl)-4-(4-fluorophenyl)-5,6,7,8,9,10-hexahydrocycloocta[b]pyridine] | 46 nM | 7 nM | 92 nM |  |  |  |  |  |  |  |  | Inhibitory ratio (exploratory activity) (exploratory activity): 83.7%; inhibition in vivo at 0.3 mg/kg ([1]; dose 0.3 mg/kg, apomorphine 0.3 mg/kg s.c. 2 h after compound): 88%; response vs control in vivo at 1 mg/kg [2, 6]: 102%; response vs control in vivo at 1 mg/kg [2, 7]: 235%; response vs control in vivo at 1 mg/kg [2, 8]: 212%; response vs control in vivo at 1 mg/kg [2, 9]: 118% |
| CCN1CCN(c2cc(-c3ccc(F)cc3)c3c(n2)CCCC3)CC1 [Example 15] | 58 nM | 19 nM | 35 nM | 1700 nM | 108% | 277% | 235% | 118% |  |  |  | inhibition in vivo at 3 mg/kg ([1]; dose 3.0 mg/kg, apomorphine 0.3 mg/kg s.c. 2 h after compound): 100% |
| CCN1CCN(c2cc(-c3ccccc3)c3c(n2)CCCCC3)CC1 [Example 23, 2-(4-Ethyl-1-piperazinyl)-4-phenyl-6,7,8,9-tetrahydro-5H-cyclohepta[b]pyridine] | 96 nM | 7.7 nM | 320 nM | 2900 nM | 145% | 344% | 320% | 115% |  |  |  |  |
| c1ccc(-c2cc(N3CCNCC3)nc3c2CCCC3)cc1 [Example 86, 2-(1-piperazinyl)-4-phenyl-5,6,7,8-tetrahydroquinoline] | 730 nM | 81 nM | 530 nM | 1400 nM |  |  |  |  | 47.6% |  |  |  |
| c1ccc(-c2cc(N3CCNCC3)nc3c2CCC3)cc1 [Example 87, 2-(1-Piperazinyl)-4-phenyl-6,7-dihydro-5H-1-pyrindine] | 270 nM | 28 nM | 94 nM | 820 nM | 136% | 180% | 194% | 117% |  | 48% | 77% | Improvement (spontaneous alternation) ([3]; dose 0.5 mg/kg i.p.): 48.0%; Improvement (spontaneous alternation) ([3]; dose 2.0 mg/kg i.p.): 60.0% |
| Fc1ccc(-c2cc(N3CCNCC3)nc3c2CCC3)cc1 [Example 88, 2-(1-Piperazinyl)-4-(4-fluorophenyl)-6,7-dihydro-5H-1-pyrindine] |  | 9.1 nM | 65 nM | 670 nM | 120% | 329% | 209% | 136% | 37.0% |  | 60% | inhibition in vivo at 3 mg/kg ([1]; 2 h): 94%; IC50 (dopamine (D2) receptor): 70 nM |
| Fc1ccc(-c2cc(N3CCNCC3)nc3c2CCCC3)cc1 [Example 92, 2-(1-Piperazinyl)-4-(4-fluorophenyl)-5,6,7,8-tetrahydroquinoline] | 300 nM | 27 nM | 380 nM | 1900 nM | 139% | 208% | 192% | 121% |  |  | 44% | Improvement (step-down latency) ([4]; dose 10.0 mg/kg i.p.): 78% |
| c1ccc(-c2cc(N3CCNCC3)nc3c2CCCCC3)cc1 [Example 96] | 660 nM | 62 nM | 1100 nM | 4900 nM | 127% | 201% | 194% | 115% |  | 81% | 64% |  |
| Fc1ccc(-c2cc(N3CCNCC3)nc3c2CCCCC3)cc1 [Example 97, 2-(1-Piperazinyl)-4-(4-fluorophenyl)-6,7,8,9-tetrahydro-5H-cyclohepta[b]pyridine] | 260 nM | 5.1 nM | 890 nM | 4100 nM | 128% | 232% | 176% | 125% | 32.0% | 38% | 36% |  |

— patent US5021421A, “2-(1-Piperazinyl)-4-phenylcycloalkanopyridine derivatives, processes for the production thereof, and pharmaceutical composition containing the same” (Dainippon Pharmaceutical Co., Ltd., priority 1989, dated 1991)
